Each block holds one compound with its values, some of them ahead of it.
Key:
E. coli = test: Stability of hydrogen peroxide (bound vs free) in aqueous solution challenged with E. coli; format: physicochemical
Description: This method tests the stability of the hydrogen peroxide in the combination. The testing methods used follow the standard procedures set-forth by the Clinical and Laboratory Standards Institute (CLSI) and US Pharmacopeia. • i. E. coli was chosen as the bacteria to challenge the stability of the bound compositions and the free hydrogen peroxide. • ii. The hydrogen peroxide concentration was matched to the selected bacteria in order to form a useful curve representing hydrogen peroxide degradation over time for the samples. As such, the hydrogen peroxide was varied from 62.5 ppm to 500 ppm on a fixed E. coli concentration of 10^6 CFU/ml, and a concentration of 125 ppm was chosen as the initial hydrogen peroxide level used to challenge the E. coli over time. • iii. A ratio of 1:1 of the hydrogen peroxide to each of the model compounds and plant extracts was used to form each bound composition, such that 125 ppm of each plant extract was combined with the 125 ppm of the hydrogen peroxide, • iv. The free hydrogen peroxide was added at a concentration of 125 ppm as a control to show the relative stability of the hydrogen peroxide alone in the aqueous solution as compared to the bound compositions.
FIG. 2A compares stabilities of free hydrogen peroxide to hydrogen peroxide bound to each of: gallic acid (a model polyphenol building block), tannic acid (a model polyphenol), pomegranate husk extract, green tea extract, and Blessed thistle extract. […] In both FIGS. 2A and 2B, there are curves that cannot be identified well individually, as they are identical and overlapping. […]

[1] = Amount of hydrogen peroxide that remains bound to the polyphenol in dry form; format: physicochemical; conditions: dry form redissolved in water; WATERWORKS peroxide test strip
Description: Art-recognized procedures, such as those set-forth at least in U.S. Pat. Nos. 3,860,694; 3,864,454; 4,171,280; and 4,966,762, were used as a guide for this study.
As discussed, one of skill will appreciate that hydrogen peroxide in a free form, for example, would otherwise quickly degrade. The polyphenols were provided from model compounds or plant extracts. A dry form of the compositions was made between (i) gallic acid (a model polyphenol building block from Sigma-Aldrich) and hydrogen peroxide; (ii) tannic acid (a model polyphenol component from Sigma-Aldrich) and hydrogen peroxide; (iii) pomegranate husk extract and hydrogen peroxide; and, (iv) green tea extract and hydrogen peroxide; using the procedures taught herein, including: • i. adding a solution of 35% hydrogen peroxide slowly into each of the gallic acid powder, tannic powder, pomegranate husk extract powder; or green tea extract powder. […]

[2] = tested on: IBS patients, abdominal pain; conditions: other studies; cited from earlier work

Structure (SMILES): OO [H2O2, hydrogen peroxide]
hydrogen peroxide level, Hours 0 (E. coli; 0 h (initial level), 1:1 extract:H2O2, 125 ppm each, E. coli 10^6 CFU/ml): 125 ppm
hydrogen peroxide level, Hours 4 (E. coli; 4 h, 1:1 extract:H2O2, E. coli 10^6 CFU/ml): 15 ppm
hydrogen peroxide level, Hours 8 (E. coli; 8 h, 1:1 extract:H2O2, E. coli 10^6 CFU/ml): 0 ppm
hydrogen peroxide level, Hours 12 (E. coli; 12 h, 1:1 extract:H2O2, E. coli 10^6 CFU/ml): 0 ppm
hydrogen peroxide level, Hours 16 (E. coli; 16 h, 1:1 extract:H2O2, E. coli 10^6 CFU/ml): 0 ppm
hydrogen peroxide level, Hours 20 (E. coli; 20 h, 1:1 extract:H2O2, E. coli 10^6 CFU/ml): 0 ppm
hydrogen peroxide level, Hours 24 (E. coli; 24 h, 1:1 extract:H2O2, E. coli 10^6 CFU/ml): 0 ppm
hydrogen peroxide level after degradation (E. coli; within about the first 8 hours): ~0.0 ppm

hydrogen peroxide bound by total dry wt [1]: about 3.0%
Structure (SMILES): O=C(O)c1cc(O)c(O)c(O)c1 [gallic acid]

Structure (SMILES): CN(C)C(=O)C(CCN1CCC(O)(c2ccc(Cl)cc2)CC1)(c1ccccc1)c1ccccc1 [loperamide]
effect on abdominal pain symptoms compared with placebo [2]: no different from placebo

hydrogen peroxide bound by total dry wt [1]: about 2.5%
Structure (SMILES): O=C(OC[C@H]1O[C@@H](OC(=O)c2cc(O)c(O)c(OC(=O)c3cc(O)c(O)c(O)c3)c2)[C@H](OC(=O)c2cc(O)c(O)c(OC(=O)c3cc(O)c(O)c(O)c3)c2)[C@@H](OC(=O)c2cc(O)c(O)c(OC(=O)c3cc(O)c(O)c(O)c3)c2)[C@@H]1OC(=O)c1cc(O)c(O)c(OC(=O)c2cc(O)c(O)c(O)c2)c1)c1cc(O)c(O)c(OC(=O)c2cc(O)c(O)c(O)c2)c1 [tannic acid]

From patent US10493102B2, “Methods of inhibiting the virulence of a pathogen with an oxidized tannin to treat a gastrointestinal spasm” (priority 2012, dated 2019)
